Test [1] concerns the target T1, PARG (Homo sapiens, UniProt Q86W56). Kind of test: Inhibition of PARG enzymatic assay (TR-FRET enzymatic IC50 assay). The format is biochemical. Further details: purchased Peak Proteins. The following applies: hPARG 250 pM, biotinylated-PARylated PARP substrate 30 nM. The procedure: PARG enzyme was incubated with compound or vehicle (DMSO) and the biotinylated-PARylated PARP substrate in a microtiter plate. After adding detection antibody and streptavidin-europium, and then incubating, the plate was read for fluorescence intensity. The low control (DMSO) with low fluorescence intensity represents no inhibition of enzymatic reaction while the high control (no enzyme) with high fluorescence intensity represents full inhibition of enzymatic reaction.
• PARG • hPARG: 250 pM, His-tagged, Peak Proteins, 0.96 mg/mL (8.58 μM) • Substrate: 30 nM • Reaction time: 70 minutes • Substrate: hPARP1, His- and TEV-tagged, Peak Proteins, 14 μM • Detection Antibody: anti-His monoclonal antibody-ULight, Perkin Elmer catalog #TRF0105-M • Streptavidin-Europium: Perkin Elmer catalog #AD0062 • Assay buffer: 50 mM Tris-HCl pH 7.4, 50 mM KCl, 3 mM EDTA, 0.4 mM EGTA, 1 mM DTT, 0.01% Tween 20, 0.01% BSA • Temperature: 23° C. • Total volume: 20 μL
• 0% inhibition control: DMSO • 100% inhibition control: No enzyme
• 1. Transfer 5 μL of 3× final concentration of test compounds or DMSO to the appropriate wells of a microtiter plate. • 2. Centrifuge the plate at 1000 rpm for 1 minute. • 3. Transfer 5 μL of 3× final concentration of enzyme in assay buffer or assay buffer alone to the appropriate wells. • 4. Centrifuge the plate at 1000 rpm for 1 minute. • 5. Incubate the plate at room temperature for 1 hour. • 6. Transfer 5 μL of 3× substrate in assay buffer to all the test wells. • 7. Centrifuge the plate at 1000 rpm for 1 minute. • 8. Incubate the plate at room temperature for 10 minutes. • 9. Transfer 5 μL of 3× mixture of detection antibody and streptavidin-europium in assay buffer to all the test wells. • 10. Centrifuge the plate at 1000 rpm for 1 minute. • 11. Incubate the plate at room temperature for 1 hour. • 12. Read the plate on a plate reader (e.g., Infinite M1000).

In test [2] the test system is HCC1806-XRCC1 KD (knock down) cells. Briefly: Cellular viability assay (Cell Titer-Glo). In kind it is cell-based. The following applies: HCC1806-shXRCC1 cells, 4 days of incubation, read-out: PARGi cell viability. The protocol: HCC1806-XRCC1 KD (knock down) cells were plated at 2000 cells/well in 96-well white plates with clear flat bottom. After 24 hours, the compounds of the disclosure were added starting at 30 μM for a 9-point dose response curve at 1:3 dilution. The compounds of the disclosure were added by Tecan digital dispenser excluding the outermost wells of the plate. All treatments were done in duplicates. After 4 days of incubation, 50 ul of Cell Titer-Glo (Promega) was added per well. After incubation with the reagent for 15 minutes, luminescence was read using a plate reader (TECAN). Average values of DMSO treated wells in a plate was calculated. All data points were normalized to that of the average DMSO value. The % of control for each sample compared to DMSO treated control samples. Curves are fit as % of control vs. log [compound concentration] using a 4 parameter inhibition model (Levenberg-Marquardt algorithm):
Fit=(A+((B−A)/(1+((C/x)^D))))

Test [3] deals with T1, PARG. Briefly: Inhibition of PARG cellular assay (PAR foci in HeLa cells after MMS). In kind it is cell-based. Further details: endogenous in cells; host or cells: HeLa. The following applies: compound 1 h then MMS 1 h. The procedure: The ability of the compounds disclosed herein to inhibit PARG was determined as described below. Briefly, after treating HeLa cells with the compounds of the disclosure for 1 h, followed by treatment with DNA alkylating agent methylmethanesulfonate (MMS) for an additional 1 h, the cells were fixed in 3.7% formaldehyde. The cells were permeabilized in 0.5% Triton-X100, blocked in 5% goat serum, and incubated with mouse monoclonal antibody against poly (ADP) ribose (PAR) polymer overnight at 4° C. The cells were washed and incubated with an Alexafluor 488-linked secondary antibody together with a nuclear stain (Hoechst 33342) for an hour at room temperature. After washing, images of the cells were captured and analyzed on a high content imaging microscope and software. Two measurement of PAR chain were quantified with the mean intensity over background of the nuclear foci (fluorescent signal at 488 nm range 0.3-2.0 μm foci) quantified as PAR foci (PAR Foci IC50). The cells with a PAR foci signal >1.3 was considered as positive (PAR % positive IC50), and the percentage positive cells are quantified.

Read-outs that look alike come from different tables or passages of the source.

T1 sequence (Q86W56 whole entry): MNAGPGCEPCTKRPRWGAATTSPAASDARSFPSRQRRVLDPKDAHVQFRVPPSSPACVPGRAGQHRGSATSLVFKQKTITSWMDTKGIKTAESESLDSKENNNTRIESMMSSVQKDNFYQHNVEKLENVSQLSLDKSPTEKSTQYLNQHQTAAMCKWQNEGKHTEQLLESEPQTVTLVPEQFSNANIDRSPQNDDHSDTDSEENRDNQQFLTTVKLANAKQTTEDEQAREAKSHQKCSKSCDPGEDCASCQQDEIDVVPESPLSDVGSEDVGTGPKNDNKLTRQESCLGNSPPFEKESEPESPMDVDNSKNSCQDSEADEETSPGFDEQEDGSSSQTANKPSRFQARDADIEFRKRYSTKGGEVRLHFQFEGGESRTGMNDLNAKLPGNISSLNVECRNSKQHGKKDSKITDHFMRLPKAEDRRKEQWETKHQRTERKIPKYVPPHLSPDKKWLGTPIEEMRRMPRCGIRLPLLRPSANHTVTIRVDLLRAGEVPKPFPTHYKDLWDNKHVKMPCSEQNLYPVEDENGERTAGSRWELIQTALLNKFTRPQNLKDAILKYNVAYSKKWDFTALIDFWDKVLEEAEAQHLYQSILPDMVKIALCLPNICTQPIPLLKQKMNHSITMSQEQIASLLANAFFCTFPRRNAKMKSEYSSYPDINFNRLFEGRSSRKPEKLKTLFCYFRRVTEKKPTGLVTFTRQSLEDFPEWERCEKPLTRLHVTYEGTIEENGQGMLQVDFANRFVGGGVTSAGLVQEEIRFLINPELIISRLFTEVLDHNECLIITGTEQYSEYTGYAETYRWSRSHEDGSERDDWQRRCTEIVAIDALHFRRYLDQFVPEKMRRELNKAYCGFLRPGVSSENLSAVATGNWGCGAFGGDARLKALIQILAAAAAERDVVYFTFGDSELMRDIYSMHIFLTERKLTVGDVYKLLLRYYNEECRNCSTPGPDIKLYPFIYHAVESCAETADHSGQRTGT

Turning to `CN1CC2CN(c3cc(S(=O)(=O)NC4(C#N)CC4)cc4c3cnn4-c3nnc(C(F)F)s3)CCN2C1=O` (single isomer, unassigned) [Example 71, 1-[({4-(8-methyl-7-oxo-3,6,8-triazabicyclo[4.3.0]non-3-yl)-1-[5-(difluoromethyl)-(1,3,4-thiadiazol-2-yl)]-1H-indazol-6-yl}sulfonyl)amino]cyclopropane carbonitrile], the IC50 was not above 100 nM in test [1], 1000 to 10000 nM in test [2] (96 h) and 100 to 300 nM in test [3].
`CN1CC2CN(c3cc(S(=O)(=O)NC4(C#N)CC4)cc4c3cnn4-c3nnc(C(F)F)s3)CCN2C1=O` (single isomer, unassigned) [Example 72, 1-[({4-(8-methyl-7-oxo-3,6,8-triazabicyclo[4.3.0]non-3-yl)-1-[5-(difluoromethyl)-(1,3,4-thiadiazol-2-yl)]-1H-indazol-6-yl}sulfonyl)amino]cyclopropane carbonitrile]: the IC50 is not above 100 nM in test [1], 1000 to 10000 nM in test [2] and 100 to 300 nM in test [3].
With `N#CC1(NS(=O)(=O)c2cc(-c3ccccc3)c3cnn(-c4nnc(C(F)F)s4)c3c2)CC1` [Example 1, 1-[({1-[5-(difluoromethyl)(1,3,4-thiadiazol-2-yl)]-4-phenyl-1H-indazol-6-yl}sulfonyl)amino]cyclopropanecarbonitrile], the IC50 in test [1] was in the range of 1000 to 10000 nM; in test [2] (96 h), 20000 to 30000 nM; in test [3], 1000 to 10000 nM.
Turning to `Cn1cc(-c2cc(S(=O)(=O)NC3(C#N)CC3)cc3c2cnn3-c2nnc(C(F)F)s2)ccc1=O` [Example 5, N-(1-cyanocyclopropyl)-1-(5-(difluoromethyl)-1,3,4-thiadiazol-2-yl)-4-(1-methyl-6-oxo-1,6-dihydropyridin-3-yl)-1H-indazole-6-sulfonamide], the IC50 in test [1] was not above 100 nM; in test [2] (96 h), 20000 to 30000 nM; in test [3], 300 to 1000 nM.
As for `N#CC1(NS(=O)(=O)c2cc(C3CC3)c3cnn(-c4nnc(C(F)F)s4)c3c2)CC1` [Example 6, 1-[({1-[5-(difluoromethyl)(1,3,4-thiadiazol-2-yl)]-4-cyclopropyl-1H-indazol-6-yl}sulfonyl)amino]cyclopropanecarbonitrile], the IC50 fell in the range of 1000 to 10000 nM in test [1], 20000 to 30000 nM in test [2] (96 h) and 1000 to 10000 nM in test [3].
In the case of `N#CC1(NS(=O)(=O)c2cc(C3=CCC4(CC3)COC4)c3cnn(-c4nnc(C(F)F)s4)c3c2)CC1` [Example 7, 1-[({1-[5-(difluoromethyl)(1,3,4-thiadiazol-2-yl)]-4-(2-oxaspiro[3.5]non-6-en-7-yl)-1H-indazol-6-yl}sulfonyl)amino]cyclopropanecarbonitrile], the IC50 lay within 300 to 1000 nM in test [1], 1000 to 10000 nM in test [2] (96 h) and 300 to 1000 nM in test [3].
For the compound `N#CC1(NS(=O)(=O)c2cc(C3CCC4(CC3)COC4)c3cnn(-c4nnc(C(F)F)s4)c3c2)CC1` [Example 8, 1-[({1-[5-(difluoromethyl)(1,3,4-thiadiazol-2-yl)]-4-(2-oxaspiro[3.5]non-7-yl)-1H-indazol-6-yl}sulfonyl)amino]cyclopropanecarbonitrile], the IC50 was 100 to 300 nM in test [1], 1000 to 10000 nM in test [2] (96 h) and not above 100 nM in test [3].
The matching figures for `N#CC1(NS(=O)(=O)c2cc(-c3ccccn3)c3cnn(-c4nnc(C(F)F)s4)c3c2)CC1` [Example 14, 1-[({1-[5-(difluoromethyl)(1,3,4-thiadiazol-2-yl)]-4-(2-pyridyl)-1H-indazol-6-yl}sulfonyl)amino]cyclopropanecarbonitrile]: 300 to 1000 nM, 10000 to 20000 nM and 1000 to 10000 nM.
As to `N#CC1(NS(=O)(=O)c2cc(-c3ccncn3)c3cnn(-c4nnc(C(F)F)s4)c3c2)CC1` [Example 15, 1-[({1-[5-(difluoromethyl)(1,3,4-thiadiazol-2-yl)]-4-pyrimidin-4-yl-1H-indazol-6-yl}sulfonyl)amino]cyclopropanecarbonitrile], the IC50 in test [1] was not above 100 nM; in test [2] (96 h) it was 1000 to 10000 nM; in test [3], 300 to 1000 nM.
As to `COc1nccc(-c2cc(S(=O)(=O)NC3(C#N)CC3)cc3c2cnn3-c2nnc(C(F)F)s2)n1` [Example 21, 1-[({1-[5-(difluoromethyl)(1,3,4-thiadiazol-2-yl)]-4-(2-methoxypyrimidin-4-yl)-1H-indazol-6-yl}sulfonyl)amino]cyclopropanecarbonitrile], the IC50 in test [1] lay in the range of 100 to 300 nM; in test [2] (96 h), 1000 to 10000 nM; in test [3], 300 to 1000 nM.
Consider `CC(C)C(=O)N1[C@@H]2CC[C@H]1CN(c1cc(S(=O)(=O)NC3(C#N)CC3)cc3c1cnn3-c1nnc(C(F)F)s1)C2` [Example 37, 1-[({4-[(1S,5R)-8-(2-methylpropanoyl)-3,8-diazabicyclo[3.2.1]oct-3-yl]-1-[5-(difluoromethyl)(1,3,4-thiadiazol-2-yl)]-1H-indazol-6-yl}sulfonyl)amino]cyclopropane carbonitrile], for which the values for the IC50 in test [2] (96 h) and in test [3] were 1000 to 10000 nM and not above 100 nM, respectively.
On the same counts, the results for `N#CC1(NS(=O)(=O)c2cc(N3CCN(C=O)CC3)c3cnn(-c4nnc(C(F)F)s4)c3c2)CC1` [Example 49, 1-[({1-[5-(difluoromethyl)(1,3,4-thiadiazol-2-yl)]-4-(4-formylpiperazinyl)-1H-indazol-6-yl}sulfonyl)amino]cyclopropanecarbonitrile] are 1000 to 10000 nM and 300 to 1000 nM.
`CN(C)CCN(C)C(=O)N1CCN(c2cc(S(=O)(=O)NC3(C#N)CC3)cc3c2cnn3-c2nnc(C(F)F)s2)CC1` [Example 76, [4-(1-[5-(difluoromethyl)(1,3,4-thiadiazol-2-yl)]-6-{[(cyanocyclopropyl)amino]sulfonyl}(1H-indazol-4-yl))piperazinyl]-N-[2-(dimethylamino)ethyl]-N-methylcarboxamide]: the IC50 in test [1] was not above 100 nM; in test [2] (96 h) it was 1000 to 10000 nM.
With `N#CC1(NS(=O)(=O)c2cc(N3CCN(C(=O)C4CCC4)CC3)c3cnn(-c4nnc(C(F)F)s4)c3c2)CC1` [Example 81, 1-[({1-[5-(difluoromethyl)(1,3,4-thiadiazol-2-yl)]-4-[4-(cyclobutylcarbonyl)piperazinyl]-1H-indazol-6-yl}sulfonyl)amino]cyclopropanecarbonitrile], the IC50 in test [2] (96 h) is less than 1000 nM; in test [3] it was not above 100 nM.
Take `CN1CC2(CCN(c3cc(S(=O)(=O)NC4(C#N)CC4)cc4c3cnn4-c3nnc(C(F)F)s3)CC2)C1` [Example 92, 1-[({1-[5-(difluoromethyl)(1,3,4-thiadiazol-2-yl)]-4-(2-methyl-2,7-diazaspiro-[3.5]non-7-yl)-1H-indazol-6-yl}sulfonyl)amino]cyclopropanecarbonitrile]: the IC50 in test [1] lay within 300 to 1000 nM; in test [2] (96 h) it was 10000 to 20000 nM.
In the case of “[4-(1-[5-(difluoromethyl)(1,3,4-thiadiazol-2-yl)]-6-{[(cyanocyclopropyl)amino]sulfonyl}(1H-indazol-4-yl))(1,4-diazaperhydroepinyl)]-N-methylcarboxamide [Example 31]”, the IC50 was 300 to 1000 nM in test [1] and 10000 to 20000 nM in test [2].

Values taken from patent publication US20220389003A1, “4-SUBSTITUTED INDOLE AND INDAZOLE SULFONAMIDO DERIVATIVES AS PARG INHIBITORS” (IDEAYA BIOSCIENCES, INC., priority 2019, published 2022).
